Read-outs that look alike come from different tables or passages of the source.
Experiments:
human α1d-AR = target: T1, human α1d-AR (Homo sapiens, UniProt P25100); assay: [3H]prazosin equilibrium competition binding, human α1d-AR expressed in HEK cells
T1 construct: expressed in transfected cells; host or cells: HEK cells
T1 sequence (P25100 1-572): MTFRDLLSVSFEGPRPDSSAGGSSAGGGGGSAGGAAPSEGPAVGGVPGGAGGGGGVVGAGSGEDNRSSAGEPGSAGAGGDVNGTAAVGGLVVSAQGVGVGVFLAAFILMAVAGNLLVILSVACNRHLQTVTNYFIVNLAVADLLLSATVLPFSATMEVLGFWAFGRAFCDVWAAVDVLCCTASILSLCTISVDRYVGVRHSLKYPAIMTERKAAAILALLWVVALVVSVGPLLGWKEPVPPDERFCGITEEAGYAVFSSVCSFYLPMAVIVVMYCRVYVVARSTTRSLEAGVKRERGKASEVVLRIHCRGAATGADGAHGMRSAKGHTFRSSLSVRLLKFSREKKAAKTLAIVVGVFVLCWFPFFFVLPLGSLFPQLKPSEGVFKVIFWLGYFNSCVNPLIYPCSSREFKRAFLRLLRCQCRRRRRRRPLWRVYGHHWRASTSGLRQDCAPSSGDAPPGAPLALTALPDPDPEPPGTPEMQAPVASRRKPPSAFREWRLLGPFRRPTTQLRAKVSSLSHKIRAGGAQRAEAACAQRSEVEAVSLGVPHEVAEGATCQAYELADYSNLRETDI

human α2a-AR [1] = target: T2, human α2a-AR (Homo sapiens, UniProt P08913); assay: [3H]Rauwolscine equilibrium competition binding, human α2a-AR expressed in CHO cells; conditions: human α2a-AR in CHO cells
T2 construct: expressed in transfected cells
T2 sequence (P08913 1-465): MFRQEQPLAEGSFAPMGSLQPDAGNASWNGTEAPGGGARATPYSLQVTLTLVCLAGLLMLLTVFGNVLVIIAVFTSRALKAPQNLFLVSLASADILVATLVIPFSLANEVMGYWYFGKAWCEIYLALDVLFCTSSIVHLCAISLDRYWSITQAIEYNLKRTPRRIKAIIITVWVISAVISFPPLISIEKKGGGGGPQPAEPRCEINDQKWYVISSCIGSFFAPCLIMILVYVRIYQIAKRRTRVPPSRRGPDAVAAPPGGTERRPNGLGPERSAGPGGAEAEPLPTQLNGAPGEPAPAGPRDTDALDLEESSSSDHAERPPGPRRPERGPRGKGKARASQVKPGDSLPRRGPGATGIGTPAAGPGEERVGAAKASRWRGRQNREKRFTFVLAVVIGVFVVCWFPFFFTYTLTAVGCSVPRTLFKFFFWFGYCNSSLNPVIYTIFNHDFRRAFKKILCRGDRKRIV

human α1b-AR = target: T3, human α1b-AR (Homo sapiens, UniProt P35368); assay: [3H]prazosin equilibrium competition binding, human α1b-AR expressed in HEK cells
T3 construct: expressed in transfected cells; host or cells: HEK cells
T3 sequence (P35368 1-520): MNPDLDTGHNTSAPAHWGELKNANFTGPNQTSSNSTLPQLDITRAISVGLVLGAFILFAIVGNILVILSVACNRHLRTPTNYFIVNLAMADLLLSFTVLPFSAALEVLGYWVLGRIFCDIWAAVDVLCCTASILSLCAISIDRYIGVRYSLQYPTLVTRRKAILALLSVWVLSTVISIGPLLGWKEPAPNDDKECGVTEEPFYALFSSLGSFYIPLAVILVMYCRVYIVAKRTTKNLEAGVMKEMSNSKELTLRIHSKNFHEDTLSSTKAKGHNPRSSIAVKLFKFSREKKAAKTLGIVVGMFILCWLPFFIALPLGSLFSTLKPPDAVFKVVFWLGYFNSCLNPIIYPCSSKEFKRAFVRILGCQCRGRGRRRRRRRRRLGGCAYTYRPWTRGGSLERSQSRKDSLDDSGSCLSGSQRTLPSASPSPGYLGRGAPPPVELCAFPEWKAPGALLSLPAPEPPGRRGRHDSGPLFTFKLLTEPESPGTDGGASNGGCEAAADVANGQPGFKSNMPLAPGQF

human α2b-AR = target: T4, human α2b-AR (Homo sapiens, UniProt P18089); assay: [3H]Rauwolscine equilibrium competition binding, human α2b-AR expressed in CHO cells
T4 construct: expressed in transfected cells
T4 sequence (P18089 1-450): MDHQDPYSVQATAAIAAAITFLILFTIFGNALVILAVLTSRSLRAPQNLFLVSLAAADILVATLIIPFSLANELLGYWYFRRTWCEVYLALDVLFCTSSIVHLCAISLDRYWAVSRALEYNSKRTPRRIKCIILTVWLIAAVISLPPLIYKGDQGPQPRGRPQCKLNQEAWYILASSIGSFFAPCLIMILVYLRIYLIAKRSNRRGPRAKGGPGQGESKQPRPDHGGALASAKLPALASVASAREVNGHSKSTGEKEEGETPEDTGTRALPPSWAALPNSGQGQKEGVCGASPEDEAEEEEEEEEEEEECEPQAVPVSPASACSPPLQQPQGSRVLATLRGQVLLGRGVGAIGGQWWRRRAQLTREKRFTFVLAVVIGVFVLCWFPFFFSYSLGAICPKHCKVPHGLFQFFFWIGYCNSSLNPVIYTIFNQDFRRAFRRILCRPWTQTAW

human α1a-AR = target: T5, human α1a-AR (Homo sapiens, UniProt P35348); assay: [3H]prazosin equilibrium competition binding, human α1a-AR expressed in HEK cells
T5 construct: expressed in transfected cells; host or cells: HEK cells
T5 sequence (P35348 1-466): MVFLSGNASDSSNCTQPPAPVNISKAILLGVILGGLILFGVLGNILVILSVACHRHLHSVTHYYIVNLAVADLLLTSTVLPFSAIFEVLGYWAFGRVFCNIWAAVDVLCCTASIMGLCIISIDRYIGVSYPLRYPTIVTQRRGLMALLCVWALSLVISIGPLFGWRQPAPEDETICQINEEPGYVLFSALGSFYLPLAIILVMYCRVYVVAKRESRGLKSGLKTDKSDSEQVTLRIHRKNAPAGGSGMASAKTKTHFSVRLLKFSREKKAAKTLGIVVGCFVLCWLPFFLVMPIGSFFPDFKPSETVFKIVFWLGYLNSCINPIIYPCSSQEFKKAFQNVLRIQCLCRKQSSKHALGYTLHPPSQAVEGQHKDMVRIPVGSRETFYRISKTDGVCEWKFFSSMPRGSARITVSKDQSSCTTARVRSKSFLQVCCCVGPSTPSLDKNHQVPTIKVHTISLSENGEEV

human α2c-AR [2] = target: T6, human α2c-AR (Homo sapiens, UniProt P18825); assay: Reversal of medetomidine mediated inhibition of forskolin-induced cAMP (6 CRE-LUC reporter), CHO cells expressing α2c-AR; format: cell-based
T6 construct: expressed in transfected cells
T6 sequence (P18825 1-462): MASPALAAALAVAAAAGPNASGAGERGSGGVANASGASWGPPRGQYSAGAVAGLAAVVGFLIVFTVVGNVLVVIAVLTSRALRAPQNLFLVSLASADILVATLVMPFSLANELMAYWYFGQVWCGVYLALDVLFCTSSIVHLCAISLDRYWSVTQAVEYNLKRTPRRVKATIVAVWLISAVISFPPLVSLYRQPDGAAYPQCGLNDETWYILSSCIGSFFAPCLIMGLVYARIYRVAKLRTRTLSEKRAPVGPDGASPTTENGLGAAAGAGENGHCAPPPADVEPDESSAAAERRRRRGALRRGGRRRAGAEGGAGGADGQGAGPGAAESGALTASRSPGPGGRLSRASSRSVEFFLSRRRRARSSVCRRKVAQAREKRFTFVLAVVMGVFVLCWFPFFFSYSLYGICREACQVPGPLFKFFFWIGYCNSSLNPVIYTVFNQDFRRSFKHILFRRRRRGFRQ
Experimental: (§1) The changes in cAMP levels were assessed by luciferase activities using a 6 CRE-LUC reporter gene bioassay.

human α2c-AR [3] = target: T6, human α2c-AR; assay: [3H]Rauwolscine equilibrium competition binding, human α2c-AR expressed in CHO cells
human α2a-AR [4] = target: T2, human α2a-AR; assay: Reversal of medetomidine mediated inhibition of forskolin-induced cAMP (6 CRE-LUC reporter), CHO cells expressing α2a-AR; format: cell-based; conditions: reversal of medetomidine (10 nM) effect on forskolin (5 μM) cAMP response; mean ± SEM of n=3-4; read-out: Effective Concentration-50 (nM ± SEM) α2a-AR
Experimental: as §1

- Ki (human α1d-AR): 7760 nM
- Ki (human α2a-AR [1]; Table 2, mean ± SEM of n = 4-6, read-out: pKi α2a-AR (converted)): 182 nM
- Ki (human α2a-AR [1]; [3H]rauwolscine 2.54 nM, mean ± SEM of four to nine experiments, read-out: Ki = SEM (nM) α2a-AR): 52 ± 3.2 nM
- Ki (human α1b-AR): 5750 nM
- Ki (human α2b-AR; Table 2, mean ± SEM of n = 4-6, read-out: pKi α2b-AR (converted)): 2040 nM
- Ki (human α2b-AR; [3H]rauwolscine 2.54 nM, mean ± SEM of four to nine experiments, read-out: Ki = SEM (nM) α2b-AR): 990 ± 85.2 nM
- Ki (human α1a-AR): 17000 nM
- EC50 (human α2c-AR [2]): 15.8 ± 5.2 nM
- more potent at inhibiting the action of medetomidine on α2c-AR versus α2a-AR (human α2c-AR [2]; from Table 4): 42 fold
- Ki (human α2c-AR [3]): 5.75 nM
- pKi α2c-AR (human α2c-AR [3]; Table 3, CHO cells, [3H]rauwolscine, mean ± SEM of n = 4-6): 8.24 ± 0.07
- binding affinity for α2c-AR greater than on the α1-AR subtypes (human α2c-AR [3]; from Table 3): ≥ 1000 fold
- EC50 (human α2a-AR [4]): 660 ± 210 nM
Compound: O=C(NCCCNC(=O)[C@@H]1[C@H]2C[C@H]3c4[nH]c5ccccc5c4CCN3C[C@@H]2CC[C@@H]1O)[C@@H]1[C@H]2C[C@H]3c4[nH]c5ccccc5c4CCN3C[C@@H]2CC[C@@H]1O [Compound 3b]

From patent US6638943B2 (The University of Tennessee Research Foundation, priority 2001, dated 2003)
